Experimental data published in patent US20180235213A1, “PLANT HORMONE APPLICATION” (The State of Israel Ministry of Agriculture & Rural …, priority 2015, published 2018).
“Also recorded” adds a separate entry of the source.

Columns and labels:
[1] = test system: Picual olives; assay: Application of strigolactone analogs by irrigation to olive seedlings; format: in vivo, Olea europaea L.; conditions: irrigation to roots twice a week for 6 weeks, 0.03 and 0.3 μM, vs control
Method: The effect of application of various analogues of strigolactone (SL) on olives, given to roots by irrigation was examined. Three different SL analogs; […] The seedlings were rooted from cuttings and hardened, and were about 6 months old at the time of the experiment. Growth soil mixture was used as in the nursery. Each strigolactone analog was dissolved in acetone to give a 5.6 mM solution. This solution was then further diluted with distilled water to 0.03 and 0.3 μM. The diluted solution was injected to the roots twice a week for 6 weeks, and subsequently all the growing buds were counted. For each treatment (treated and control groups) 10 plants were measured. Experiments were repeated three times.

[2] = test system: olive cuttings; assay: Plate bioassay of bud outgrowth in olive cuttings; format: in vivo, Olea europaea L.
Method: For the purpose of determining whether the active SL analogs may be used as effective repressors of shoot branching by application on the stem itself, a bioassay examining SL analogs effect on shoot branching in vitro was established. Olive seedlings were grown in greenhouse under controlled temperature of 23° C. Partitioned plates containing ½ Murashige and Skoog (MS) solidified with 1.5% w/v agar were prepared. After solidification, the center plastic area (2 cm) of the plate was removed by scalpel. Olive seedlings were cut between the second and fourth node, and the cuttings were surface-sterilized by 70% ethanol and 1% sodium hypochlorite treatment, and then placed on the plates containing the agar media. The SL analog EGO10 was mixed with ½MS in agar, cubes were cut (1.5 cm area) and positioned at the base of the cutting in the plates (FIG. 4A). Olive seedlings treated with acetone at the same concentrations used in the EGO10 treatments represented the experimental controls. Plates were sealed in two sides only by saran wrap in order to prevent accumulation of gases. The plates were positioned in an upright 90° position and incubated at 22° C. under a photoperiod of 16 hours light followed by 8 hours dark. Photographs were taken every 3 days until day 12 by binocular. Each treatment included eight replicates. […] Bud outgrowth was measured (FIG. 4C) by Image J software and the length of the bud minus its length at the first day following application was calculated. Means of replicates were subjected to statistical analysis by using the IMP statistical package.
The ability of EGO10, applied to olive seedling cuttings through the bark of the stem, to reduce bud outgrowth was examined. An agar tube containing EGO10 was placed on the bark of the cutting (FIG. 6A). Additionally, for increased penetration of the hormone analog, the bark was scratched and the ability of EGO10 to reduce bud outgrowth in comparison to EGO10 application to non-scratched bark was tested.
As a next step in the development of SL application technology, different substances that can serve as media supporting the diffusion of SLs though the bark of plants were examined. As agar usually contains nutritional compounds, bacteria and fungi can easily contaminate agar cubes. Therefore, other substances were examined, as described hereinbelow. Experiments were performed similarly to those described in Example 3 above, by application of EGO10 in different media on the cutting bark, in plates. Bud outgrowth was monitored as described above.
Based on the results above, 30% HPC were mixed with two different concentrations of EGO10; 5 and 10 μM, and applied on the stem of olive seedling (FIG. 10). Bud outgrowth was monitored as described above and the results were compared to those obtained upon using agar cubes (described in Example 3), which served as a positive control.
In an attempt to improve HPC suitability to the examined system, HPC was mixed with glycerin in the ratio of 3:1. Glycerin, as a known humectant, has the capability to moist materials. In exemplary procedures, 5 μM EGO10 were added to the HPC and glycerin mixture, and then placed on the bark of olive cuttings. Bud outgrowth was monitored as described above.
A number of additional possible substances suitable as media for EGO10 application were screened, including polyvinyl acetate (PVAc), polyvinyl pyrrolidone (PVP) and hydroxy ethyl cellulose (HEC). The polymers were used at concentrations of 30% in water, however, as 30% PVP was not solid, it could not be tested. Accordingly, HEC and PVAc were examined for their ability to support EGO10 activity. Bud outgrowth was calculated as described above.

[3] = test system: olive seedlings; assay: Application via rigid tubes to olive seedlings under commercial nursery conditions; format: in vivo, Olea europaea L.; conditions: 50 μM with HPC+glycerin
Method: Experiments were performed in AGROGOLD nurseries under commercial nursery conditions, which include nethouse, 40% shed without temperature control. The tested formulations were applied in rigid tubes. […] The tube was sealed and fixed to the plant by cello tape. The tube was completely filled with ˜1 ml of the experimental formulation and then the top was covered with cotton (FIGS. 20A-20F). Each experiment included 10 olive plants for each treatment. The number of wake up buds was counted 75 days following application and the seedlings architecture, general growth and development were examined.
The bud growth effect of EGO10 (50 μM) or acetone control, each supplied together with HPC+glycerin on the stem of the olive cuttings was tested under the nursery conditions.

[4] = test system: Pomegranate; assay: EGO10 collar application to pomegranate in commercial nursery; format: in vivo, Punica granatum; conditions: 50 μM as collar in Eppendorf tubes
Method: Two replicates on experiments were performed in commercial nursery.

[5] = test system: Tomato (Shirez, Ikram cultivars); assay: EGO10 collar, irrigation and granules application to greenhouse tomato; format: in vivo, Solanum lycopersicum; conditions: for side branches: collar of 500 μM; for side branch weight: collars 25 and 50 μM
Source text: Greenhouse tomato (Shirez, Ikram and other cultivars) are one of the crops that necessitate vast investment in the constant trimming of side branches. Hand labor is needed for this trimming, on an everyday basis, to avoid significant yield loses. The constant trimming is a cause for infection at trimming sites. […] For these experiments two cultivars of greenhouse tomato were used, Ikram and Shirez, both vigorously producing side branches that should be trimmed under commercial growth conditions.
Also, treatments that include irrigation with 3×10^−6 M (once a week for 6 weeks, 5 ml) and granules application (controlled release at that same concentration of 3×10^−6 M) were applied. Each treatment consisted of 20 plants, blocks of 4 plants were randomly distributed in the greenhouse.
Following, and to increase the possible effect of EGO10 on tomato branching, additional experiment was performed with tomato plants were treated with collar of 500 μM EGO10.

Question: How did the “number of growing buds / lateral branches” value [1] turn out when CC1=C[C@H](O/C=C2\Cc3c(n(C)c4ccccc34)C2=O)OC1=O [EGO10] was run?
Answer: repressing effect on axillary branch growth similar to that of GR24

Question: What about the bud outgrowth ([2]; 5 μM in 30% HEC on the bark) of the same compound?
Answer: did not

Question: What about the bud outgrowth ([2]; 5 μM in 30% PVAc on the bark) of the same compound?
Answer: supported EGO10 activity of bud outgrowth inhibition

Question: And the bud outgrowth ([2]; 5 μM in HPC mixed with glycerin (3:1) on the bark, until day 12)?
Answer: inhibited bud outgrowth throughout the experimental period

Question: And the bud outgrowth ([2]; 5 μM in PVA:HEC (2:1) on the bark)?
Answer: did not sufficiently support EGO10 ability to act to inhibit bud outgrowth

Question: And the bud outgrowth ([2]; 5 μM in PVA:PVP (2:1) on the bark)?
Answer: did not sufficiently support EGO10 ability to act to inhibit bud outgrowth

Question: What about the bud outgrowth ([2]; 5 μM in agar cube at the base of the cutting, day 12, vs acetone control) of the same compound?
Answer: marked reduction in bud outgrowth

Question: And the bud outgrowth ([2]; 5 μM in agar cube on the bark, 96, 168 and 264 h, vs acetone control)?
Answer: significant reduction in bud outgrowth; also recorded: reduced bud outgrowth throughout the entire experimental period

Question: What about the bud outgrowth ([2]; 5 and 10 μM in 30% HPC on the stem) of the same compound?
Answer: reduced bud outgrowth until day 4 post application

Question: What about the “application site (bark and vascular system) after removal of the apparatus” value [3] of the same compound?
Answer: unharmed and functional

Question: What about the seedling outgrowth ([3]; 75 days) of the same compound?
Answer: not inhibited

Question: And the “number of wake up buds (bud outgrowth)” value ([3]; rigid tubes, 75 days, vs acetone+HPC+glycerin)?
Answer: inhibits bud outgrowth significantly

Question: And the plant architecture ([3]; control seedlings bushy)?
Answer: one or two leading branches

Question: What about the “number of axillary branches” value [4] of the same compound?
Answer: marked and significant reduction in the number of axillary branches

Question: And the “yield determined as number of fruit” value ([5]; Ikram, EGO10 treated plants)?
Answer: increased

Question: And the side branches ([5]; Ikram)?
Answer: significant reduction in side branches

Question: What about the side branch weight ([5]; Ikram) of the same compound?
Answer: reduced to some extent branching

Question: And the side branches ([5]; Shirez)?
Answer: did not respond

Question: What about the side branch weight ([5]; Shirez, irrigation, granules) of the same compound?
Answer: did not change significantly branching
